Measurements: PubChem BioAssay AID1963871 (Molecular Pharmacology Branch, DTP, NCI, 2024)
pIC50: −log10 of the molar value.

Tested on: KRAS-mutant PDC multicell tumor spheroid viability
Experiment: Anticancer human tumor 521955-158-R2-J5-PDC patient-derived pancreatic carcinoma cell line growth inhibition [KRAS2]
Conditions: for pIC50: curve of first compound; for viability, T/C: stronger effect = lower value
Summary of the method: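 KRAS-mutant tumor cells were grown as spheroids with HUVEC endothelial cells and human MSCs as stroma. Targeted agents were tested alone and with KRAS pathway inhibitors. Doses started at or near clinical Cmax, or 10 microM, descending half-log.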

[1] = second compound 0.1 µM, first compound 0.01 µM
[2] = second compound 0.1 µM, first compound 0.0316 µM
[3] = second compound 0.1 µM, first compound 0.1 µM
[4] = second compound 0.1 µM, first compound 0.316 µM
[5] = second compound 0.1 µM, first compound 1 µM
[6] = second compound 0.1 µM, first compound 3.16 µM
[7] = second compound 0.316 µM, first compound 0.01 µM
[8] = second compound 0.316 µM, first compound 0.0316 µM
[9] = second compound 0.316 µM, first compound 0.1 µM
[10] = second compound 0.316 µM, first compound 0.316 µM
[11] = second compound 0.316 µM, first compound 1 µM
[12] = second compound 0.316 µM, first compound 3.16 µM
[13] = second compound 1 µM, first compound 0.01 µM
[14] = second compound 1 µM, first compound 0.0316 µM
[15] = second compound 1 µM, first compound 0.1 µM
[16] = second compound 1 µM, first compound 0.316 µM
[17] = second compound 1 µM, first compound 1 µM
[18] = second compound 1 µM, first compound 3.16 µM
[19] = second compound 3.16 µM, first compound 0.01 µM
[20] = second compound 3.16 µM, first compound 0.0316 µM
[21] = second compound 3.16 µM, first compound 0.1 µM
[22] = second compound 3.16 µM, first compound 0.316 µM
[23] = second compound 3.16 µM, first compound 1 µM
[24] = second compound 3.16 µM, first compound 3.16 µM
[25] = second compound 10 µM, first compound 0.01 µM
[26] = second compound 10 µM, first compound 0.0316 µM
[27] = second compound 10 µM, first compound 0.1 µM
[28] = second compound 10 µM, first compound 0.316 µM
[29] = second compound 10 µM, first compound 1 µM
[30] = second compound 10 µM, first compound 3.16 µM
[31] = second compound 0.1 µM, first compound 10 µM
[32] = second compound 0.316 µM, first compound 10 µM
[33] = second compound 1 µM, first compound 10 µM
[34] = second compound 3.16 µM, first compound 10 µM
[35] = second compound 10 µM, first compound 10 µM
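Note: viability read after seven days of drug exposure.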

| SMILES | pIC50 (second compound 0.1 µM) | pIC50 (second compound 0.316 µM) | pIC50 (second compound 1 µM) | pIC50 (second compound 3.16 µM) | pIC50 (second compound 10 µM) | viability, T/C [2] | viability, T/C [3] | viability, T/C [4] | viability, T/C [5] | viability, T/C [6] | viability, T/C [8] | viability, T/C [9] | viability, T/C [10] | viability, T/C [11] | viability, T/C [14] | viability, T/C [15] | viability, T/C [20] | viability, T/C [21] | viability, T/C [26] | viability, T/C [27] | also measured |
| --- | --- | --- | --- | --- | --- | --- | --- | --- | --- | --- | --- | --- | --- | --- | --- | --- | --- | --- | --- | --- | --- |
| CC1COCCN1c1cc(-c2ccnn2C)c2ccnc(-c3ccn[nH]3)c2n1 (stereo not given) + CNCc1ccccc1-c1csc(C(C)Nc2nc(C)nc3cc(OC)c(OC)cc23)c1 | 7.52 | 7.62 | 7.66 | > 8.00 | > 8.00 | 48.3% | 11.4% | 13.6% | 20.8% | 29.5% | 35% | 12.4% | 11.7% | 20.7% | 25.3% | 8.4% | 0.11% | 0.07% | 0.15% | 0.13% | viability, T/C [1]: 101%; viability, T/C [7]: 95.9%; viability, T/C [12]: 25.9%; viability, T/C [13]: 105%; viability, T/C [16]: 11.7%; viability, T/C [17]: 21.2%; viability, T/C [18]: 22.9%; viability, T/C [19]: 0.3%; viability, T/C [22]: 0.06%; viability, T/C [23]: 0.08%; viability, T/C [24]: 0.33%; viability, T/C [25]: 0.14%; viability, T/C [28]: 0.13%; viability, T/C [29]: 0.12%; viability, T/C [30]: 0.22% |
| CC1OCC2(CCN(c3cnc(Sc4ccnc(N)c4Cl)c(N)n3)CC2)C1N (stereo not given) + CNCc1ccccc1-c1csc(C(C)Nc2nc(C)nc3cc(OC)c(OC)cc23)c1 | < 5.00 | < 5.00 | < 5.00 | > 7.50 | > 7.50 | 86.5% | 83.1% | 85.6% | 74.4% | 67% | 90.2% | 85.2% | 68.5% | 77.3% | 90.6% | 83.5% | 0.27% | 0.18% | 0.15% | 0.14% | viability, T/C [31]: 70.7%; viability, T/C [12]: 75.4%; viability, T/C [32]: 73.1%; viability, T/C [16]: 76.8%; viability, T/C [17]: 70%; viability, T/C [18]: 68.4%; viability, T/C [33]: 75%; viability, T/C [22]: 0.19%; viability, T/C [23]: 0.2%; viability, T/C [24]: 0.36%; viability, T/C [34]: 0.31%; viability, T/C [28]: 0.15%; viability, T/C [29]: 0.13%; viability, T/C [30]: 0.14%; viability, T/C [35]: 0.21% |
| CCNC(=O)CC1N=C(c2ccc(Cl)cc2)c2cc(OC)ccc2-n2c(C)nnc21 (stereo not given) + CNCc1ccccc1-c1csc(C(C)Nc2nc(C)nc3cc(OC)c(OC)cc23)c1 | 6.29 | 6.41 | 6.44 | > 7.50 | > 7.50 | 108% | 87.9% | 56.1% | 41.4% | 32% | 105% | 93% | 53.3% | 34.3% | 99% | 92.2% | 0.37% | 0.16% | 0.15% | 0.14% | viability, T/C [31]: 31.4%; viability, T/C [12]: 28.6%; viability, T/C [32]: 30.6%; viability, T/C [16]: 51.8%; viability, T/C [17]: 34.9%; viability, T/C [18]: 32.5%; viability, T/C [33]: 31.3%; viability, T/C [22]: 0.27%; viability, T/C [23]: 0.08%; viability, T/C [24]: 0.08%; viability, T/C [34]: 0.19%; viability, T/C [28]: 0.12%; viability, T/C [29]: 0.8%; viability, T/C [30]: 0.13%; viability, T/C [35]: 0.36% |
| Cn1nccc1Nc1nccc(-c2cc3c(s2)C(C)(C)N(CCN2CCOCC2)C3=O)n1 + CNCc1ccccc1-c1csc(C(C)Nc2nc(C)nc3cc(OC)c(OC)cc23)c1 | 5.98 | 6.11 | 6.04 | > 7.50 | > 7.50 | 99.7% | 84.2% | 60.7% | 54.2% | 36.5% | 98.3% | 81.4% | 60.9% | 49.6% | 103% | 100% | 0.21% | 0.22% | 0.11% | 0.15% | viability, T/C [31]: 18%; viability, T/C [12]: 29.4%; viability, T/C [32]: 18.3%; viability, T/C [16]: 71.9%; viability, T/C [17]: 47.7%; viability, T/C [18]: 22.3%; viability, T/C [33]: 0.54%; viability, T/C [22]: 0.19%; viability, T/C [23]: 0.51%; viability, T/C [24]: 0.08%; viability, T/C [34]: 0.36%; viability, T/C [28]: 0.14%; viability, T/C [29]: 0.14%; viability, T/C [30]: 0.19%; viability, T/C [35]: 0.2% |
| CC(=O)OC12COC1CC(O)C1(C)C(=O)C(O)C3=C(C)C(OC(=O)C(O)C(NC(=O)OC(C)(C)C)c4ccccc4)CC(O)(C(OC(=O)c4ccccc4)C21)C3(C)C (stereo not given) + COc1cc2nc(C)nc(NC(C)c3cc(N)cc(C(F)(F)F)c3)c2cc1OC1CCOC1 | > 8.00 | > 8.00 | > 8.00 | > 8.00 | > 8.00 | 13.7% | 14.5% | 12.4% | 18.4% | 19% | 14.1% | 13.6% | 13.2% | 15.3% | 12.9% | 14% | 14.3% | 12.1% | 13.4% | 14.3% | viability, T/C [1]: 25%; viability, T/C [7]: 17.5%; viability, T/C [12]: 20.2%; viability, T/C [13]: 18.6%; viability, T/C [16]: 14.1%; viability, T/C [17]: 19.4%; viability, T/C [18]: 26.4%; viability, T/C [19]: 14%; viability, T/C [22]: 12.5%; viability, T/C [23]: 17.1%; viability, T/C [24]: 19.6%; viability, T/C [25]: 18.1%; viability, T/C [28]: 14.1%; viability, T/C [29]: 14.3%; viability, T/C [30]: 18.9% |
| CN(C)C/C=C/C(=O)Nc1cc2c(Nc3ccc(F)c(Cl)c3)ncnc2cc1O[C@H]1CCOC1 + COc1cc2nc(C)nc(NC(C)c3cc(N)cc(C(F)(F)F)c3)c2cc1OC1CCOC1 | < 7.00 | < 7.00 | < 7.00 | < 7.00 | < 7.00 | 86.8% | 85% | – | – | – | 80.4% | 61.1% | – | – | 84.3% | 77.2% | 77.8% | 71.8% | 91.8% | 72.7% | viability, T/C (second compound 0.1 µM, first compound 0.000316 µM): 91.4%; viability, T/C (second compound 0.1 µM, first compound 0.001 µM): 93.2%; viability, T/C (second compound 0.1 µM, first compound 0.00316 µM): 74.3%; viability, T/C [1]: 79.6%; viability, T/C (second compound 0.316 µM, first compound 0.000316 µM): 78.4%; viability, T/C (second compound 0.316 µM, first compound 0.001 µM): 84.8%; viability, T/C (second compound 0.316 µM, first compound 0.00316 µM): 63.5%; viability, T/C [7]: 74.5%; viability, T/C (second compound 1 µM, first compound 0.000316 µM): 79.8%; viability, T/C (second compound 1 µM, first compound 0.001 µM): 99.6%; viability, T/C (second compound 1 µM, first compound 0.00316 µM): 82.6%; viability, T/C [13]: 69.8%; viability, T/C (second compound 3.16 µM, first compound 0.000316 µM): 91.5%; viability, T/C (second compound 3.16 µM, first compound 0.001 µM): 93.9%; viability, T/C (second compound 3.16 µM, first compound 0.00316 µM): 88.5%; viability, T/C [19]: 71.2%; viability, T/C (second compound 10 µM, first compound 0.000316 µM): 90.2%; viability, T/C (second compound 10 µM, first compound 0.001 µM): 82.8%; viability, T/C (second compound 10 µM, first compound 0.00316 µM): 86%; viability, T/C [25]: 85.4% |
